Measured values from US20090099197A1 (priority 2005, published 2009).
pIC50: −log10 of the molar value. Entries after “also recorded” stand apart in the source; their conditions may differ. Where two headings read alike, the source gives them in different places. Values belong to the compound of their own block, whether it stands above or below them.

Assays:
wild-type BCR-ABL = conditions: cited from earlier work
[1] = test system: imatinib-resistant BCR-ABL mutants; conditions: cited from earlier work
[2] = test system: K562/ADM (K562 cells over-expressing MDR-1); assay: In vitro proliferation/cytotoxicity assay, MDR-1 overexpressing K562/ADM cells; assay type: cell-based, human; conditions: for pIC50: Homo sapiens
Method: Two cell lines were used: K562 (erythromyeloblastoid CML) and K562/ADM (K562 cells over-expressing MDR-1).
Experiments were performed as described in Example 1 except that K562/ADM cells were used.

[3] = test system: K562 (erythromyeloblastoid CML) cells; assay: cells; conditions: Homo sapiens, K562, 72 h
[4] = test system: K562/STI-571/R tumor xenografts; assay: Tumor response in imatinib-resistant K562/STI-571/R xenograft model; assay type: in vivo, SCID mice
[5] = test system: K562/ADM tumor xenografts; assay: Tumor response in SC K562/ADM leukemia xenograft model; assay type: in vivo, mice; conditions: QDx14
Method: (B) Activity versus K562/ADM tumor xenografts. Mice were implanted subcutaneously (SC) on Day 0 with K562/ADM. On Day 18 when tumors were at a size range of 100-200 mg, treatment began. […] Experiments were performed as described in Example 3.
Tumors implanted in mouse xenograft models were allowed to grow to a pre-determined size of 100-300 mg (tumors outside the range were excluded) and animals were evenly distributed to treatment and control groups. Treated animals were checked daily for treatment-related toxicity/mortality. […] The difference in body weight (Wt2−Wt1) provides a measure of treatment-related toxicity. Tumor weights (mg) were estimated from the formula: tumor weight=(length×width^2)/2.
Log cell kill was also used as a measure of anti-tumor activity according to the following equation: log cell kill=T−C/(3.32×TVDT). In this equation: T=mean tumor weight at the end of treatment for the treated group; C=mean tumor weight at the end of treatment for the control group; and TVDT=median time (days) for control tumor weight to reach target size−median time (days) for control tumor weight to reach half the target size.
A maximum tolerated dose (MTD), frequently equivalent to the optimal dose, was defined as a dose immediately below that causing unacceptable toxicity (i.e. more than one death) or, in the absence of any deaths, when accompanied by >20% loss of body weight.

[6] = test system: K562 intracranial CML tumor model; assay: Survival of mice bearing intracranial K562 CML; assay type: in vivo; conditions: BIDx10
Method: Extramedullary complications, particular in the CNS, are known risks of Ph+ALL or Ph+CML in lymphoid blast crisis. […] Both drugs were administered orally to mice inoculated intracranially (IC) with K562 cells using a BID×10 treatment schedule.

in vivo = conditions: SCID, mouse
Method: Concentrations and dosing frequency are as specified in FIG. 4A. […] Experiments were performed as described in Example 4.

intracranial K562 cells = assay: Bioluminescence imaging of intracranially inoculated K562 cells; assay type: in vivo, SCID mice; conditions: 15 mg/kg, 2qdx14, M-F, po
Method: Experiments were performed as described in Example 4.

[7] = test system: K562 (erythromyeloblastoid CML) cells
[8] = test system: K562-R (K562/STI-571/R) imatinib resistant cells
[9] = test system: K562-R (K562/STI-571/R) imatinib resistant cells; assay: cells; conditions: Homo sapiens, K-562R
[10] = K562 cells, 72 hours incubation

Compound: Cc1cn(-c2cc(NC(=O)c3ccc(C)c(Nc4nccc(-c5cccnc5)n4)c3)cc(C(F)(F)F)c2)cn1 [AMN107]
- imatinib-resistant BCR-ABL mutants/mutations against which active [1]: 32/33

- pIC50 [3]: 7.68
Compound: COc1cccc2c1C(=O)c1c(O)c3c(c(O)c1C2=O)C[C@@](O)(C(=O)CO)C[C@@H]3O[C@H]1C[C@H](N)[C@H](O)[C@H](C)O1 [adriamycin]
- pIC50 ([2]; K562/ADM cells, read-out: IC50): 5.90
- fold resistance (IC50 K562/ADM versus K562) ([2]; K562/ADM versus parent K562 cells): 60 fold

Compound: Cc1nc(Nc2ncc(C(=O)Nc3c(C)cccc3Cl)s2)cc(N2CCN(CCO)CC2)n1 [dasatinib, N-(2-chloro-6-methylphenyl)-2-[[6-[4-(2-hydroxyethyl)-1-piperazinyl]-2-methyl-4-pyrimidinyl]amino]-5-thiazolecarboxamide]
- pIC50 ([2]; K562, K562/ADM cells): ~8.52
- effect on tumor ([4]; dasatinib 5 mg/kg (lowest dose)): tumor regressed initially
- effect on tumor size ([4]; dasatinib, all doses except the lowest tested (5 mg/kg)): substantial reductions in tumor size
- anti-leukemic activity ([5]; 5 mg/kg PO): inactive
- growth delay ([5]; 15 mg/kg PO, P=0.0009): 16.7 days
- anti-leukemic activity ([5]; 30 mg/kg PO): completely eliminated tumors
- increase in lifespan (ILS) ([6]; 5 mg/kg/adm oral): 268%
- increase in lifespan (ILS) ([6]; 15 mg/kg/adm oral): 450%
- Kp (in vivo): 0.05 to 0.1
- bioluminescence of intracranial K562 cells after treatment (intracranial K562 cells): virtually no bioluminescence; also recorded: marked reduction of bioluminescence
- pIC50 [7, 10]: 9.30
- sensitivity of K562 cells (percent growth inhibition), comparison ([7]; dasatinib versus imatinib or AMN107, FIG. 1A): significantly more sensitive to dasatinib than either imatinib or AMN107
- resistance factor (IC50 K562-R versus K562) [8]: 6 fold
- pIC50 [3, 10]: 9.15
- pIC50 [9]: 8.36

Compound: Cc1ccc(NC(=O)c2ccc(CN3CCN(C)CC3)cc2)cc1Nc1nccc(-c2cccnc2)n1 [imatinib, reference compound]
- effect on tumors ([4]; imatinib 75 and 150 mg/kg three times daily): little or no impact
